The record followed here is patent US6518243B1, “Desleucyl glycopeptide antibiotics and methods of making same” (Trustees of Princeton University, priority 1999, dated 2003).

In experiment [1] the test system is S aureus ATCC 29213. Kind of experiment: MIC determination in BHI media, OD600. The class given is cell-based. The settings on record: BHI + 0.1% casamino acids, 18 hours at 37° C., ≧90% OD600 inhibition. In outline: (§1)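 Log-phase bacteria were diluted to about 5×10^5 CFU/ml and exposed to test compounds serially diluted in DMSO. Following 18 hours at 37° C, growth was read by plate absorbance to assign the MIC.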

The subject of experiment [2] is E. faecium ATCC 49624. Nature of the experiment: MIC determination in BHI media, OD600. The experiment is classed as cell-based. The settings on record: BHI + 0.1% casamino acids, 18 hours at 37° C., ≧90% OD600 inhibition. In a few lines:
as §1

For experiment [3], the system named is E. faecalis ATCC 29212. Nature of the experiment: MIC determination in BHI media, OD600. The experiment is classed as cell-based. The settings on record: BHI + 0.1% casamino acids, 18 hours at 37° C., ≧90% OD600 inhibition. In a few lines: as §1
For experiment [4], the system named is S. Aureus ATCC 33591. Kind of experiment: MIC determination in BHI media, OD600. The experiment is classed as cell-based. The settings on record: BHI + 0.1% casamino acids, 18 hours at 37° C., ≧90% OD600 inhibition. In a few lines:
as §1

Experiment [5] has as its system E. faceium (ATCC 49624). Kind of experiment: Zone of inhibition screen, 96 well agar array format. The settings on record: zone of inhibition relative to 1 mg/ml stock solution of p-chlorobiphenylvancomycin. The experiment is classed as cell-based, E. faecium. In outline: (§2)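 Each compound was tested for antibacterial activity against a shared bacterial panel, with screening carried out on agar in a 96-well array.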

Experiment [6] concerns E. faecalis (CL 4877). Described as above. The experiment is classed as cell-based. On the set-up: scale not given here. The settings on record: zone of inhibition relative to 1 mg/ml stock solution of p-chlorobiphenylvancomycin. In a few lines:
as §2
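Wherever zone score, E. faecium ATCC 49624 is given: score 3 means fourfold and score 4 sixteenfold the reference zone size.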

`CC1OC(OC2C(Oc3c4cc5cc3Oc3ccc(cc3Cl)C(O)C3NC(=O)C(NC(=O)C5NC(=O)C(CC(N)=O)NC(=O)C(NC(=O)C5CNC(=O)N5)C(O)c5ccc(c(Cl)c5)O4)c4ccc(O)c(c4)-c4c(O)cc(O)cc4C(C(=O)O)NC3=O)OC(CO)C(O)C2O)CC(C)(NCc2ccc(-c3ccc(Cl)cc3)cc2)C1O` (centres unmarked) [Compound 56-3]: the MIC S. aureus ATCC 29213 in experiment [1] worked out at 0.25 µg/mL. Moreover, in experiment [2], the MIC E. faecium ATCC 49624 came to 0.12 µg/mL. In addition, the MIC E. faecalis ATCC 29212 in experiment [3] was 0.25 µg/mL. Also, the MIC S. aureus ATCC 33591 in experiment [4] came out at 0.25 µg/mL.

Regarding `CCCCC(N)C(=O)NC1C(=O)NC(CC(N)=O)C(=O)NC2C(=O)NC3C(=O)NC(C(=O)NC(C(=O)O)c4cc(O)cc(O)c4-c4cc3ccc4O)C(O)c3ccc(c(Cl)c3)Oc3cc2cc(c3OC2OC(CO)C(O)C(O)C2OC2CC(C)(NCc3ccc(-c4ccc(Cl)cc4)cc3)C(O)C(C)O2)Oc2ccc(cc2Cl)C1O` (centres unmarked) [Compound 42], the “zone score, E. faecium ATCC 49624” value in experiment [5] worked out at 2. In experiment [1], the MIC S. aureus ATCC 29213 was 0.39 µg/mL. Also, the MIC E. faecium ATCC 49624 in experiment [2] was 0.39 µg/mL. The MIC E. faecalis ATCC 29212 in experiment [3] is 0.78 µg/mL. Moreover, the MIC S. aureus ATCC 33591 in experiment [4] amounted to 0.39 µg/mL.

As to `CNC(CC(C)C)C(=O)NC1C(=O)NC(CC(N)=O)C(=O)NC2C(=O)NC3C(=O)NC(C(=O)NC(C(=O)O)c4cc(O)cc(O)c4-c4cc3ccc4O)C(O)c3ccc(c(Cl)c3)Oc3cc2cc(c3OC2OC(CO)C(O)C(O)C2OC2CC(C)(NCc3ccc(-c4ccc(Cl)cc4)cc3)C(O)C(C)O2)Oc2ccc(cc2Cl)C1O` (centres unmarked) [Compound 517, Cl-Biphenyl Vancomycin, reference compound], in experiment [1], the MIC S. aureus ATCC 29213 stood at 0.25 µg/mL. In addition, in experiment [2], the MIC E. faecium ATCC 49624 was determined as 0.062 µg/mL. For the same compound, the MIC E. faecalis ATCC 29212 in experiment [3] was found to be 0.25 µg/mL. Moreover, in experiment [4], the MIC S. aureus ATCC 33591 came out at 0.25 µg/mL.

Turning to `CSCC[C@@H](N)C(=O)N[C@H]1C(=O)N[C@@H](CC(N)=O)C(=O)N[C@H]2C(=O)N[C@H]3C(=O)N[C@H](C(=O)N[C@@H](C(=O)O)c4cc(O)cc(O)c4-c4cc3ccc4O)[C@H](O)c3ccc(c(Cl)c3)Oc3cc2cc(c3O[C@@H]2O[C@H](CO)[C@@H](O)[C@H](O)[C@H]2O[C@@H]2C[C@@](C)(NCc3ccc(-c4ccc(Cl)cc4)cc3)[C@@H](O)[C@@H](C)O2)Oc2ccc(cc2Cl)[C@H]1O` [Compound 15], the MIC S. aureus ATCC 29213 in experiment [1] is 0.25 µg/mL. Besides, in experiment [2], the MIC E. faecium ATCC 49624 was 0.12 µg/mL. In addition, in experiment [3], the MIC E. faecalis ATCC 29212 amounted to 0.25 µg/mL. Moreover, in experiment [4], the MIC S. aureus ATCC 33591 turned out to be 0.12 µg/mL. Besides, in experiment [6], the “zone score, E. faecalis CL 4877” value amounted to 2.

For the compound `CC1OC(OC2C(Oc3c4cc5cc3Oc3ccc(cc3Cl)C(O)C3NC(=O)C(NC(=O)C5NC(=O)C(CC(N)=O)NC(=O)C(NC(=O)C(N)CCCCNC(N)=O)C(O)c5ccc(c(Cl)c5)O4)c4ccc(O)c(c4)-c4c(O)cc(O)cc4C(C(=O)O)NC3=O)OC(CO)C(O)C2O)CC(C)(NCc2ccc(-c3ccc(Cl)cc3)cc2)C1O` (centres unmarked) [Compound 61], the MIC S. aureus ATCC 29213 in experiment [1] is 0.12 µg/mL. Further, the MIC E. faecium ATCC 49624 in experiment [2] stood at 0.12 µg/mL. The MIC E. faecalis ATCC 29212 in experiment [3] was 0.25 µg/mL. In addition, the MIC S. aureus ATCC 33591 in experiment [4] is 0.12 µg/mL.

As for `CNC(C(=O)NC1C(=O)NC(CC(N)=O)C(=O)NC2C(=O)NC3C(=O)NC(C(=O)NC(C(=O)O)c4cc(O)cc(O)c4-c4cc3ccc4O)C(O)c3ccc(c(Cl)c3)Oc3cc2cc(c3OC2OC(CO)C(O)C(O)C2OC2CC(C)(NCc3ccc(-c4ccc(Cl)cc4)cc3)C(O)C(C)O2)Oc2ccc(cc2Cl)C1O)C(C)C` (centres unmarked) [Compound 328], the MIC S. aureus ATCC 29213 in experiment [1] was 0.25 µg/mL. Moreover, the MIC E. faecium ATCC 49624 in experiment [2] was determined as 0.12 µg/mL. The MIC E. faecalis ATCC 29212 in experiment [3] turned out to be 0.39 µg/mL. Also, the MIC S. aureus ATCC 33591 in experiment [4] stood at 0.25 µg/mL.

Consider `CNC(CC(C)C)C(=O)NC1C(=O)NC(CC(N)=O)C(=O)NC2C(=O)NC3C(=O)NC(C(=O)NC(C(=O)O)c4cc(O)cc(O)c4-c4cc3ccc4O)C(O)c3ccc(c(Cl)c3)Oc3cc2cc(c3OC2OC(CN)C(O)C(O)C2OC2CC(C)(NCc3ccc(-c4ccc(Cl)cc4)cc3)C(O)C(C)O2)Oc2ccc(cc2Cl)C1O` (centres unmarked) [Compound 523], for which the MIC S. aureus ATCC 29213 in experiment [1] was 0.78 µg/mL. Further, the MIC E. faecium ATCC 49624 in experiment [2] is 0.12 µg/mL. The MIC E. faecalis ATCC 29212 in experiment [3] was 0.25 µg/mL. The MIC S. aureus ATCC 33591 in experiment [4] was found to be 0.39 µg/mL.

With `CCC(C)C(NC)C(=O)NC1C(=O)NC(CC(N)=O)C(=O)NC2C(=O)NC3C(=O)NC(C(=O)NC(C(=O)O)c4cc(O)cc(O)c4-c4cc3ccc4O)C(O)c3ccc(c(Cl)c3)Oc3cc2cc(c3OC2OC(CO)C(O)C(O)C2OC2CC(C)(NCc3ccc(-c4ccc(Cl)cc4)cc3)C(O)C(C)O2)Oc2ccc(cc2Cl)C1O` (centres unmarked) [Compound 330], the MIC S. aureus ATCC 29213 in experiment [1] stood at 0.25 µg/mL. Besides, the MIC E. faecium ATCC 49624 in experiment [2] is 0.12 µg/mL. Also, in experiment [3], the MIC E. faecalis ATCC 29212 was 0.78 µg/mL. The MIC S. aureus ATCC 33591 in experiment [4] amounted to 0.25 µg/mL.

Turning to `CC1OC(OC2C(Oc3c4cc5cc3Oc3ccc(cc3Cl)C(O)C3NC(=O)C(NC(=O)C5NC(=O)C(CC(N)=O)NC(=O)C(NC(=O)C(N)CCCNC(N)=O)C(O)c5ccc(c(Cl)c5)O4)c4ccc(O)c(c4)-c4c(O)cc(O)cc4C(C(=O)O)NC3=O)OC(CO)C(O)C2O)CC(C)(NCc2ccc(-c3ccc(Cl)cc3)cc2)C1O` (centres unmarked) [Compound 62], the MIC S. aureus ATCC 29213 in experiment [1] stood at 0.25 µg/mL. Also, the MIC E. faecium ATCC 49624 in experiment [2] stood at 0.12 µg/mL. Further, the MIC E. faecalis ATCC 29212 in experiment [3] worked out at 0.25 µg/mL. Also, in experiment [4], the MIC S. aureus ATCC 33591 stood at 0.25 µg/mL.
